tested on: HL-60 cells (human acute myeloid leukemia cells); experiment: alamarBlue proliferation assay with HL-60 cells; format: cell-based; settings: 120 h, 5 days, relative to DMSO baseline level of 1.0, read-out: AVEw, weighted arithmetic mean of normalized fluorescence intensity values (Activity Range), HL-60 proliferation
Experimental: The antiproliferative activities of compounds falling under formula I, formula II, formula III, formula IV and formula V were investigated on cells or cell lines originating from a disorder of the myeloid cell compartment, the neuroendocrine system, the cervix, and the mucosal epithelium, as well as from the skin epithelium. To this end, HL-60 cells, TT cells, HeLa cells, CAL-27 cells and human primary epidermal keratinocytes (HPEK) were seeded into 96-well plates suitable for fluorescence assays (CORNING #3598) at following initial cell numbers: 1000 cells per well for HL-60; 9000 cells per well for TT; 2000 cells per well for HeLa, 2000 cells per well for CAL-27, 2000 cells per well for HPEK. The cells were treated with compounds at indicated final concentrations (diluted from the 1000× stock-solutions in DMSO to a final DMSO concentration of 0.1% v/v) or with the empty carrier DMSO at 0.1% v/v as control for 5 days. At day 5 after starting the treatments the cells were subjected to the alamarBlue® Proliferation Assay (Bio-Rad Serotec GmbH, BUF012B) according to the protocol of the manufacturer. The readout was taken with a multi-well plate-reader in the fluorescence mode with applying a filter for excitation at 560 nm (band width 10 nm) and for emission at 590 nm (band width 10 nm). Resveratrol (RES) treatment was included as control for growth inhibition.
The assays were performed in duplicate or more replicates of independent single experiments each containing a six-fold replicate for every condition. For every individual plate, the measured fluorescence intensity values of the conditions with compound treatment were normalized against the corresponding equally weighted arithmetic mean of the fluorescence intensity values of the six DMSO treated control wells in order to obtain the relative values to a baseline level of 1.0. The statistical calculations were performed in analogy to the luciferase assay as described above. To this end, two independent outlier analyses were performed according to the methods by Peirce and Chauvenet (Ross, Journal of Engineering Technology 2003, 1-12). Outliers confirmed by at least one of the methods were excluded from the calculations but not more than one value out of six per compound within a single experiment. The weighted arithmetic mean AVEw for each compound was calculated from the normalized values over all independent replicates of the single experiments comprising the six replicates each. The corresponding standard deviation for the weighted arithmetic mean was calculated according to the method described by Bronstein et al. (Bronstein, Semendjajew, Musiol, Mühlig, Taschenbuch der Mathematik, 5th edition 2001 (German), publisher: Verlag Harri Deutsch, Frankfurt am Main and Thun) and was combined with the Gauß′ error propagation associated with the performed calculation for the normalization. The resulting standard deviation is herein referred to as “combined standard deviation”.
HL-60 cells were cultivated according to the protocol of the provider in RPMI 1640 medium (Fisherscientific, #11554526) containing 10% fetal bovine serum (Fisherscientific, #15517589).
A compound is considered as a growth inhibitor of HL-60 cells, if—at a reference concentration of 20 μM—the weighted arithmetic mean of the normalized fluorescence intensity values after addition of the corresponding combined standard deviation amounts to 0.9 or lower, in particular to 0.8 or lower, 0.7 or lower, 0.6 or lower, 0.4 or lower, and 0.2 or lower, relative to the overall basis level of 1.0. The overall basis level was calculated as the weighted arithmetic mean of all normalized values from the DMSO control measurements in analogy to the calculations performed for the test-compounds. The corresponding combined standard deviation for the DMSO values amounts to less than 1·10^−2.

Row | SMILES | activity at 20 µM
1 | CCc1ccc(Oc2ccc(C(=O)O)cc2)cc1 [Compound 002, 4-(4-ethylphenoxy)benzoic acid] | 80 to 90%
2 | CCOC(=O)c1ccc(Oc2ccc(C(C)C)cc2)cc1 [Compound 054, ethyl 4-(4-isopropylphenoxy)benzoate] | 80 to 90%
3 | O=C(O)c1ccc(Oc2ccc(C3CC4CCC3CC4)cc2)nc1 (stereo not drawn) [Compound 087, 6-(4-((1s,4s)-bicyclo[2.2.2]octan-2-yl)phenoxy)nicotinic acid] | 80 to 90%
4 | CCc1ccc(Oc2ccc(C(=O)NO)cc2)cc1 [Compound 165, 4-(4-ethylphenoxy)-N-hydroxybenzamide] | 80 to 90%
5 | CCCCc1ccc(Oc2ccc(C(=O)N(C)C)cc2)cc1 [Compound 218, 4-(4-butylphenoxy)-N,N-dimethylbenzamide] | 40 to 60%
6 | CCC(C)(C)c1ccc(Oc2ccc(C(=O)N(C)C)cc2)cc1 [Compound 223, N,N-dimethyl-4-(4-(tert-pentyl)phenoxy)benzamide] | 70 to 80%
7 | CCCCCc1ccc(Oc2ccc(C(N)=O)cn2)cc1 [Compound 245, 6-(4-pentylphenoxy)nicotinamide] | 80 to 90%
8 | CCC(C)(C)c1ccc(Oc2ccc(C(N)=O)cn2)cc1 [Compound 248, 6-(4-(tert-pentyl)phenoxy)nicotinamide] | 80 to 90%
9 | CCC(C)(C)c1ccc(Oc2ccc(C(=O)NC)cn2)cc1 [Compound 298, N-methyl-6-(4-(tert-pentyl)phenoxy)nicotinamide] | 80 to 90%
10 | CCCCCc1ccc(Oc2ccc(C(=O)N(C)C)cn2)cc1 [Compound 320, N,N-dimethyl-6-(4-pentylphenoxy)nicotinamide] | 40 to 60%
11 | CCOC(=O)c1ccc(Oc2ccc(C34CC5CC(CC(C5)C3)C4)cc2)c(F)c1 [Compound 414, ethyl 4-(4-((3r,5r,7r)-adamantan-1-yl)phenoxy)-3-fluorobenzoate] | 60 to 70%
12 | O=C(O)c1cnc(Oc2ccc(C(F)(F)F)cc2)c(F)c1 [Compound 427, 5-fluoro-6-(4-(trifluoromethyl)phenoxy)nicotinic acid] | 80 to 90%
13 | CCOC(=O)c1cnc(Oc2ccc(C(C)(C)CC)cc2)c(F)c1 [Compound 477, ethyl 5-fluoro-6-(4-(tert-pentyl)phenoxy)nicotinate] | 80 to 90%
14 | CCOC(=O)c1cnc(Oc2ccc(C3CCCCC3)cc2)c(F)c1 [Compound 488, ethyl 6-(4-cyclohexylphenoxy)-5-fluoronicotinate] | 70 to 80%
15 | CCOC(=O)c1cnc(Oc2ccc(C34CC5CC(CC(C5)C3)C4)cc2)c(F)c1 [Compound 492, ethyl 6-(4-((3r,5r,7r)-adamantan-1-yl)phenoxy)-5-fluoronicotinate] | 60 to 70%
16 | CCC(C)(C)c1ccc(Oc2ccc(C(=O)N(C)C)cc2F)cc1 [Compound 581, 3-fluoro-N,N-dimethyl-4-(4-(tert-pentyl)phenoxy)benzamide] | 70 to 80%
17 | CN(C)C(=O)c1ccc(Oc2ccc(C3CCCCC3)cc2)c(F)c1 [Compound 592, 4-(4-cyclohexylphenoxy)-3-fluoro-N,N-dimethylbenzamide] | 80 to 90%
18 | CNC(=O)c1cnc(Oc2ccc(C34CC5CC(CC(C5)C3)C4)cc2)c(F)c1 [Compound 674, 6-(4-((3r,5r,7r)-adamantan-1-yl)phenoxy)-5-fluoro-N-methylnicotinamide] | 70 to 80%
19 | CCC(C)(C)c1ccc(Oc2ncc(C(=O)N(C)C)cc2F)cc1 [Compound 685, 5-fluoro-N,N-dimethyl-6-(4-(tert-pentyl)phenoxy)nicotinamide] | 70 to 80%
20 | CN(C)C(=O)c1cnc(Oc2ccc(C34CC5CC(CC(C5)C3)C4)cc2)c(F)c1 [Compound 700, 6-(4-((3r,5r,7r)-adamantan-1-yl)phenoxy)-5-fluoro-N,N-dimethylnicotinamide] | 60 to 70%
21 | CCOC(=O)c1ccc(Oc2ccc(C3(C(F)(F)F)CC3)cc2)c(F)c1 [Compound 723, ethyl 3-fluoro-4-(4-(1-(trifluoromethyl)cyclopropyl)phenoxy)benzoate] | 80 to 90%
